Results as given in US4510082A, “Pharmacologically active peptides” (Eli Lilly and Company, priority 1983, dated 1985).
Where a name gives a salt, the structure may show the parent alone.

What was measured:
Cox Standard albino mice = experiment: mouse writhing test (acetic acid induced); format: in vivo; conditions: 0.6% acetic acid i.p., dose reducing writhing frequency by 50%
Method: In the mouse writhing test, a writhing response is defined as a contraction of the abdominal musculature followed by extension of the hind limbs. Acetic acid administered intraperitoneally (10 ml./kg.) at a concentration of 0.6% was used to induce a writhing response. Five Cox Standard albino mice weighing 20-22 g. after being fasted overnight were observed simultaneously for the writhing response. Each mouse was used only once. The observation period was then […] and started five minutes following administration of the acetic acid. Inhibition of mouse writhing was calculated from the total number of writhes in the control and test compound-treated groups according to the following formula: [formula]
The dose required to reduce the frequency of writhing by 50% is defined as the ED50 and is calculated by "The use of Regression Line in Reverse", [Brownlee, K.A., Statistical Theory and Methodology in Science and Engineering, 2nd Ed., New York, John Wiley and Sons (1965)].

mouse (Harlan ND4) = experiment: mouse hot plate test (mouse jump); format: in vivo; conditions: subcutaneous injection, tested 15 minutes after administration, hot plate 55° C.
Method: In the mouse hot plate test, an upright acrylic cylinder comprising, as its base, a hot plate surface which is maintained at 55° C. is used. A mouse (Harlan ND4) is given, by subcutaneous injection, a predetermined amount of test compound dissolved or suspended in a suitable carrier, and, 15 minutes after administration of the test compound, the mouse is placed on the hot plate surface. The latency in seconds until the mouse jumps from the hot plate surface is measured. […] This must occur in a dose range which produces no motor incoordination or incapacitation. The following Table records ED50 results obtained from this test. By the term "ED50 " is meant that dose which produces analgesia in 50% of the mice tested. Analgesia is defined as a response latency in the presence of test compound that is equal to or greater than the control response latency plus two standard deviations. The percent analgesia data are converted to probits, and the ED50 is calculated by regression analysis of the dose-response data. Each dose response curve must have at least four points, and each point is determined using data from a minimum of ten treated mice and ten control mice.

mice = conditions: cited from earlier work

Row | Molecule | Mouse Writhing, ED50, Oral (Cox Standard albino mice) | Mouse Writhing, ED50, Subcutaneous (Cox Standard albino mice) | Mouse Jump ED50 (mouse (Harlan ND4)) | analgesic activity upon intracerebroventricular administration (mice)
1 | CCN(C(=O)CNC(=O)[C@@H](C)NC(=O)[C@H](Cc1ccc(O)cc1)NC)[C@@H](Cc1ccccc1)CN(C)C [Ala Et H, L-(N-Methyl)tyrosyl-D-alanylglycine, [N-ethyl-N-(1-benzyl-2-dimethylamino)ethyl]amide, Diacetate Salt] | 50.4 mg/kg | 1.14 mg/kg | 0.04 mg/kg | –
2 | CCN(C(=O)CNC(=O)[C@@H](C)NC(=O)[C@H](Cc1ccc(O)cc1)NC)[C@@H](Cc1ccc(F)cc1)CN(C)C [Ala Et p-F, L-(N-Methyl)tyrosyl-D-alanylglycine[N-ethyl-N-[1-(4'-fluorobenzyl)-2-dimethylamino]ethyl]amide, Diacetate Salt] | 88.2 mg/kg | 2.1 mg/kg | 0.04 mg/kg | –
3 | CN[C@@H](Cc1ccc(O)cc1)C(=O)N[C@H](C)C(=O)NCC(=O)N(C)[C@@H](Cc1ccccc1)CN(C)C [Ala Me H, L-(N-Methyl)tyrosyl-D-alanylglycine, [N-methyl-N-(1-benzyl-2-dimethylamino)ethyl]amide, Diacetate Salt] | ~ 160 mg./kg. | 1.81 mg/kg | 0.05 mg/kg | –
4 | CCN(C(=O)CNC(=O)[C@@H](COC)NC(=O)[C@H](Cc1ccc(O)cc1)NC)[C@@H](Cc1ccccc1)CN(C)C [Ser(Me) Et H, L-(N-Methyl)tyrosyl-D-(O-methyl)serylglycine, [N-ethyl-N-(1-benzyl-2-dimethylamino)ethyl]amide, Diacetate Salt] | 53.5 mg/kg | 3.6 mg/kg | 0.09 mg/kg | –
5 | H-Tyr-Gly-Gly-Phe-Leu-OH [leucine enkephalin] | – | – | – | exhibit analgesic activity
6 | H-Tyr-Gly-Gly-Phe-Met-OH [methionine enkephalin] | – | – | – | exhibit analgesic activity
